This passage reports GI50 and inhibition results from PMC12624955, “Exploring diarylheptanoid derivatives to target LIMK1 as potential agents against colorectal cancer” (Journal of Enzyme Inhibition and Medicinal Chemistry, 2025).

Test [1] deals with HCT-116. Nature of the test: Sulforhodamine B assay (cell proliferation). The test is classed as cell-based. The settings on record: Homo sapiens, SRB assay, 72 h, mean ± SD. How it is done:
(§1) Colorectal cell line, HCT-116, was purchased from the Bioresource Collection and Research Centre (BCRC, Hsinchu, Taiwan), while HT-29 was obtained from the American Type Culture Collection (ATCC, Manassas, VA, USA). Both cell lines were maintained in McCoy’s 5 A medium (with L-glutamine and 2.2 g/L NaHCO3, M4892, Sigma) supplemented with 10% foetal bovine serum (Corning Incorporated, NY, USA) and 1% penicillin–streptomycin–amphotericin B (100 unit/ml penicillin G, 0.1 mg/ml streptomycin sulphate, 0.25 μg/ml amphotericin B, Corning Incorporated, NY, USA). All cultures were maintained in a humidified incubator at 37 °C with 5% CO2.
(§2) Cells were seeded in 96-well plates at a density of 3 × 10^3 cells/well in 100 μl of culture medium and treated with compounds at the indicated concentrations for 72 h. After treatment, cells were fixed with 10% trichloroacetic acid for 20 min and washed with H2O. The cells were then stained with 0.4% sulforhodamine B (SRB) in 1% acetic acid for 20 min, followed by two washes with 1% acetic acid. After the well-dried, the protein-bound dye was dissolved in 100 µl of 10 mM Tris base solution, and the absorbance was measured at 515 nm using an ELISA reader (Molecular Device, Sunnyvale, CA, USA).

In test [2] the test system is HT-29. Briefly: Sulforhodamine B assay (cell proliferation). The test is classed as cell-based. The settings on record: Homo sapiens, SRB assay, 72 h, mean ± SD. The protocol: as §1, §2
Test [3] deals with T1, BTK (Homo sapiens, UniProt Q06187).
T1 construct: purchased Thermo Fisher Scientific SelectScreen
T1 sequence (Q06187 whole entry): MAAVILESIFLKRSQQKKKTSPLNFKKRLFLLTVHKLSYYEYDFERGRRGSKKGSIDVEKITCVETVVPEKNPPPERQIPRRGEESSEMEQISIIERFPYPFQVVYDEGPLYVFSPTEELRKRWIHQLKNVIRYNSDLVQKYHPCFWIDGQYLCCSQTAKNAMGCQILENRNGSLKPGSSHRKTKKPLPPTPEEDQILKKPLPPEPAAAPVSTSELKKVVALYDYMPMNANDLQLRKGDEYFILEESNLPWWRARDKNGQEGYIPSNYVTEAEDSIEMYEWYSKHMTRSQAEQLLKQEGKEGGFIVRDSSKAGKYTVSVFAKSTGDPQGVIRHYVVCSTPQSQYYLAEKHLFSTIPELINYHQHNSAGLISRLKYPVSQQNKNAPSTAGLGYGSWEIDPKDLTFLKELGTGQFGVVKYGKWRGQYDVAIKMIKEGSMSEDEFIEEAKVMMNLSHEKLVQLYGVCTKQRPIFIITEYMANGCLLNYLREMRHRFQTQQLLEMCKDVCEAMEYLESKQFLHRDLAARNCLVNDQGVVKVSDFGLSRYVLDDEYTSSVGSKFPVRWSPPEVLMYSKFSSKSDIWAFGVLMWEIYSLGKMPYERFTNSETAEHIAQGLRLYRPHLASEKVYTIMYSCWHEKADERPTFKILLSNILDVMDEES
Briefly: SelectScreen kinase panel, Z′-LYTE kinase assay. It counts as biochemical. Conditions: read-out: Inhibition percentage at 1 μM. How it is done: (§3) Kinase panel screening was carried out using the SelectScreen Kinase Assay (Thermo Fisher Scientific, Waltham, MA, USA). Three complementary assay formats were applied: the Z′-LYTE kinase assay, LanthaScreen Eu kinase binding assay, and Adapta Universal kinase assay. The kinases selected for this study and the corresponding assay formats are summarised in Supplementary Table S1.
(§4) The Z′-LYTE Kinase Assay (Thermo Fisher Scientific, Waltham, MA, USA) was used to evaluate selected kinases’ activity, according to the manufacturer’s instructions (https://www.thermofisher.com/tw/zt/home/industrial/pharma-biopharma/drug-discovery-development/target-and-lead-identification-and-validation/kinasebiology/kinase-activity-assays/z-lyte/z-lyte-reactivity-table.html). This endpoint assay quantifies kinase activity by detecting peptide substrate phosphorylation. Briefly, a 2× mixture of selected kinase and relevant substrate was prepared in kinase buffer (0.01% polyoxyethylene lauryl ether (BRIJ-35), 50 mM 4-(2-hydroxyethyl)-1-piperazineethanesulfonic acid (HEPES), pH 7.5, 1 mM ethylene glycol-bis(β-aminoethyl ether)-N,N,N′,N′-tetraacetic acid (EGTA), and 10 mM MgCl2). After 1 h incubation at room temperature, 5 μl of 1:128 diluted development reagent solution was added, followed by an additional 1 h incubation. Fluorescence was recorded using a multimode plate reader.

In test [4] the target is T2, NEK1 (Homo sapiens, UniProt Q96PY6).
T2 construct: purchased Thermo Fisher Scientific SelectScreen
T2 sequence (Q96PY6 whole entry): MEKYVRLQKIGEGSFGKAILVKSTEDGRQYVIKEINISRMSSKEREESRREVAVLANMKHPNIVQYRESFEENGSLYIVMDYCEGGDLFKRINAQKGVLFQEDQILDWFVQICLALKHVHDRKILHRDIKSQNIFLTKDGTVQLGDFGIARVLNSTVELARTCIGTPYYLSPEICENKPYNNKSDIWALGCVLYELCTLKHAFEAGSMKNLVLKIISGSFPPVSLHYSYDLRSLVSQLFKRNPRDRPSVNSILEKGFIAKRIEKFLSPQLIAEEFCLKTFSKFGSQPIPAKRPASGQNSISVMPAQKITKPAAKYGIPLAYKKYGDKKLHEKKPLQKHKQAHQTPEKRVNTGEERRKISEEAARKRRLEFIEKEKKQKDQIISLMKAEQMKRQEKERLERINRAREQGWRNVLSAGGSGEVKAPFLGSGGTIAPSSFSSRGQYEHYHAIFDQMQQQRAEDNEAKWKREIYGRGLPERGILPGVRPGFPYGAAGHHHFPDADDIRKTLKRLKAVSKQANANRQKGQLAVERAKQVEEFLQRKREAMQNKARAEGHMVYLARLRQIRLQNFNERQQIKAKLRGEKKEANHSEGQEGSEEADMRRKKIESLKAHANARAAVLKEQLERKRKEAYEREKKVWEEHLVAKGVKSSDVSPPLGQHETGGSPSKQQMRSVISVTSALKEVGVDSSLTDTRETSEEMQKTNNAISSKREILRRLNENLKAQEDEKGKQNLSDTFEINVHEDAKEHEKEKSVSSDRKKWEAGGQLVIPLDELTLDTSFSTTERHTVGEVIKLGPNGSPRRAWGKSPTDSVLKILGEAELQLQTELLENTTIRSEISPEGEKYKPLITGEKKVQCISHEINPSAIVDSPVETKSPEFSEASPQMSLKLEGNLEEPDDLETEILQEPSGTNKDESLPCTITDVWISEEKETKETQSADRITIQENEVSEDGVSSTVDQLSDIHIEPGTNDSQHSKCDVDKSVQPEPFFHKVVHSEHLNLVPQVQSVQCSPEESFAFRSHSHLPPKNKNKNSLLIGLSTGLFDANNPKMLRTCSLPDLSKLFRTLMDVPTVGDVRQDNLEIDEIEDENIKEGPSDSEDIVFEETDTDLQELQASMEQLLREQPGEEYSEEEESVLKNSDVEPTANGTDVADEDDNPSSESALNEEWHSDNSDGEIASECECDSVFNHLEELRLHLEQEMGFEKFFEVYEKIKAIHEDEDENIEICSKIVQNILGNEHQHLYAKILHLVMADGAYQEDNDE
Briefly: SelectScreen kinase panel, Z′-LYTE kinase assay. The test is classed as biochemical. Conditions: read-out: Inhibition percentage at 1 μM. How it is done:
as §3, §4

In test [5] the target is T3, CSNK1G1 (CK1 gamma 1) (Homo sapiens, UniProt Q9HCP0).
T3 construct: purchased Thermo Fisher Scientific SelectScreen
T3 sequence (Q9HCP0 whole entry): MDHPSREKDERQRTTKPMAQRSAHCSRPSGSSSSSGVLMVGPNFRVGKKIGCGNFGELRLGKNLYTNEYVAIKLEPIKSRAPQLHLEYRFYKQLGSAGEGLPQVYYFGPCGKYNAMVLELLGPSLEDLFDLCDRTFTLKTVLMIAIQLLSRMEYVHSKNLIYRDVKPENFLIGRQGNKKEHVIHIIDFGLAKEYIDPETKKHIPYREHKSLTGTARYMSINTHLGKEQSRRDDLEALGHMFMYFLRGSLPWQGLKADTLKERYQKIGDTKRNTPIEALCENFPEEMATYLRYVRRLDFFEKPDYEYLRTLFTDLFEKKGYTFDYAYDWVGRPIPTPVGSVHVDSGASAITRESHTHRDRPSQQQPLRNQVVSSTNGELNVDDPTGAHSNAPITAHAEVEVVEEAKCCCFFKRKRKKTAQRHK
Briefly: SelectScreen kinase panel, Z′-LYTE kinase assay. The test is classed as biochemical. The settings on record: read-out: Inhibition percentage at 1 μM. The protocol: as §3, §4

For test [6], the target named is T4, ROCK1 (Homo sapiens, UniProt Q13464).
T4 construct: purchased Thermo Fisher Scientific SelectScreen
T4 sequence (Q13464 whole entry): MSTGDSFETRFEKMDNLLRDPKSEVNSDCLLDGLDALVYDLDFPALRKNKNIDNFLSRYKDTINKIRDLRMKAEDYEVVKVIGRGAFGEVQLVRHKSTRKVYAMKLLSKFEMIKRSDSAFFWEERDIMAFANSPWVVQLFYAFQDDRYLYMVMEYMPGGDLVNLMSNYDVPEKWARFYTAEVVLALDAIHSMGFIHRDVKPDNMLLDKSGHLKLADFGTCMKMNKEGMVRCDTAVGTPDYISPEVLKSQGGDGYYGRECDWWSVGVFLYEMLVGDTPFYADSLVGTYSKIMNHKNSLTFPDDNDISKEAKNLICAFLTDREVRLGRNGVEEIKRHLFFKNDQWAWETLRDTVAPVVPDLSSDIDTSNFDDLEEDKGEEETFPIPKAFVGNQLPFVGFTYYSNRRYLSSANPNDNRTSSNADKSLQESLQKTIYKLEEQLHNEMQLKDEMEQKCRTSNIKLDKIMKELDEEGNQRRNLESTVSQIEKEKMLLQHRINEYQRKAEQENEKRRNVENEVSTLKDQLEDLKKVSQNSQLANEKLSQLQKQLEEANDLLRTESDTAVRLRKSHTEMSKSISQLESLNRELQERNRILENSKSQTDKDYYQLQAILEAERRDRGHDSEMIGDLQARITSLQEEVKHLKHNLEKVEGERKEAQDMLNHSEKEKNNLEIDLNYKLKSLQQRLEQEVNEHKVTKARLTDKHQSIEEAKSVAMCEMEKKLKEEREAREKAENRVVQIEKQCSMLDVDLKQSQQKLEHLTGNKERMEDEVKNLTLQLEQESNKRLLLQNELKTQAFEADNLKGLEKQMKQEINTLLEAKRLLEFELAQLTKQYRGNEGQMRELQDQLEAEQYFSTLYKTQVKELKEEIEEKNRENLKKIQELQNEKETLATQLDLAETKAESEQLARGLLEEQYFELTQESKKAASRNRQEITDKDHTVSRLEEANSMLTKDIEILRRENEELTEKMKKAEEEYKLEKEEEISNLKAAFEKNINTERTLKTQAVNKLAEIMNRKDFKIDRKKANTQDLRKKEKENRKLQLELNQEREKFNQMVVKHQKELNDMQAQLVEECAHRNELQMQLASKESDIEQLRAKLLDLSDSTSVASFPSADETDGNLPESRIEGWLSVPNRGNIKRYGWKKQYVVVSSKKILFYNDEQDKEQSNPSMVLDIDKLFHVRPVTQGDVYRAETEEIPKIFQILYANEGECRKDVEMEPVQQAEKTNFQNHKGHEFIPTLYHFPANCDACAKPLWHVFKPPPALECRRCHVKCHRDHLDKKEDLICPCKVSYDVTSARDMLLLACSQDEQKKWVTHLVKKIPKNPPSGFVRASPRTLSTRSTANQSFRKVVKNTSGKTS
Briefly: SelectScreen kinase panel, Z′-LYTE kinase assay. The settings on record: read-out: Inhibition percentage at 1 μM. The test is classed as biochemical. The protocol:
as §3, §4

The target of test [7] is T5, LCK (Homo sapiens, UniProt P06239).
T5 construct: purchased Thermo Fisher Scientific SelectScreen
T5 sequence (P06239 whole entry): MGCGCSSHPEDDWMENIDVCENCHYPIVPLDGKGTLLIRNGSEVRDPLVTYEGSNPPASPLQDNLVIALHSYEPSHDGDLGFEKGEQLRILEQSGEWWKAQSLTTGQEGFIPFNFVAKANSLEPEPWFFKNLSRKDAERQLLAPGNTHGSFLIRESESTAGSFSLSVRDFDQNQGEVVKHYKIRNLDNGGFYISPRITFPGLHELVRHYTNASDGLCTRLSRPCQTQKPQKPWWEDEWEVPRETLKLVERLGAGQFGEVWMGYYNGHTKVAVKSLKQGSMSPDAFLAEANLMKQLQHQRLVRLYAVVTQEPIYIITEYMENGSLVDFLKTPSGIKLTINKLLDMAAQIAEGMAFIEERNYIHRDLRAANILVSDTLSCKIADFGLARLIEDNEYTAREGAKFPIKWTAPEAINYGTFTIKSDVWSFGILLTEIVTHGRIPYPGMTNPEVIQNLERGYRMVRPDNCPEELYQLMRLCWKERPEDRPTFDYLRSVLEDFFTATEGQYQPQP
Briefly: SelectScreen kinase panel, Z′-LYTE kinase assay. It counts as biochemical. The settings on record: read-out: Inhibition percentage at 1 μM. How it is done:
as §3, §4

Test [8] has as its target T6, CDK2/cyclin A (Homo sapiens, UniProt P24941).
T6 construct: purchased Thermo Fisher Scientific SelectScreen
Nature of the test: SelectScreen kinase panel, Z′-LYTE kinase assay. The test is classed as biochemical. Conditions: read-out: Inhibition percentage at 1 μM. The protocol: as §3, §4

In the case of `O=C(/C=C/c1ccc(O)c(O)c1)CCCCn1ccc2c(O)cccc21` [Compound 13a, (E)-1-(3,4-dihydroxyphenyl)-7-(4-hydroxy-1H-indol-1-yl)hept-1-en-3-one], the GI50 in test [1] is 14.7 ± 0.8 µM; in test [2], 10.4 ± 0.6 µM. Moreover, the inhibition at 1 µM was 19% in test [3]; -1% in test [4]; 4% in test [5]; 10% in test [6]; -6% in test [7]; 0% in test [8].
